“And” between values parts separate entries of the source, which are not always exact repeats. Identical values can stand only once. ± gives the expanded uncertainty stated by the source.
Assay: mn = molality of the nth substance listed, in mol/kg
Conditions: 298.15 K, 101.33 kPa, Liquid

C[N+](C)(C)C.[Br-] [tetramethylammonium bromide] + O
Conditions | mass density
m1 = 0.2579 | 1006.85 ± 0.48 kg/m3
m1 = 0.258 | 1006.83 ± 0.58 kg/m3
m1 = 0.2581 | 1006.9 ± 0.48 kg/m3
m1 = 0.532 | 1016.59 ± 0.6 kg/m3
m1 = 0.5322 | 1016.42 ± 0.5 kg/m3
m1 = 0.5325 | 1016.59 ± 0.5 kg/m3
m1 = 0.8105 | 1025.86 ± 0.52 kg/m3
m1 = 0.8239 | 1026.24 ± 0.62 kg/m3
m1 = 1.134 | 1036.07 ± 0.64 kg/m3 and 1035.72 ± 0.54 kg/m3
m1 = 1.839 | 1046.9 ± 0.66 kg/m3

CCCC[N+](CCCC)(CCCC)CCCC.[Br-] [tetrabutylammonium bromide] + O
Conditions | mass density [kg/m3]
m1 = 0.0509 | 998.2 ± 0.42
m1 = 0.1034 | 999.39 ± 0.42
m1 = 0.2709 | 1003.18 ± 0.43
m1 = 0.589 | 1010.09 ± 0.44
m1 = 0.7318 | 1013.27 ± 0.45

CC[N+](CC)(CC)CC.[Br-] [tetraethylammonium bromide] + O
Conditions | mass density
m1 = 0.102 | 1000.71 ± 0.42 kg/m3
m1 = 0.4023 | 1010.95 ± 0.44 kg/m3
m1 = 0.549 | 1015.83 ± 0.46 kg/m3
m1 = 1.212 | 1035.35 ± 0.43 kg/m3 and 1035.67 ± 0.5 kg/m3
